Measurements as given in publication PMC8482623 (Nature structural & molecular biology, 2020).

Experiments:
[1] = target: T1, mBcs1 (full-length mouse Bcs1; mBcs1-His) (Mus musculus, UniProt Q9CZP5); assay: blue-native PAGE band shift; type: binding; settings: conformational change seen as band shift
T1 sequence (Q9CZP5 1-418): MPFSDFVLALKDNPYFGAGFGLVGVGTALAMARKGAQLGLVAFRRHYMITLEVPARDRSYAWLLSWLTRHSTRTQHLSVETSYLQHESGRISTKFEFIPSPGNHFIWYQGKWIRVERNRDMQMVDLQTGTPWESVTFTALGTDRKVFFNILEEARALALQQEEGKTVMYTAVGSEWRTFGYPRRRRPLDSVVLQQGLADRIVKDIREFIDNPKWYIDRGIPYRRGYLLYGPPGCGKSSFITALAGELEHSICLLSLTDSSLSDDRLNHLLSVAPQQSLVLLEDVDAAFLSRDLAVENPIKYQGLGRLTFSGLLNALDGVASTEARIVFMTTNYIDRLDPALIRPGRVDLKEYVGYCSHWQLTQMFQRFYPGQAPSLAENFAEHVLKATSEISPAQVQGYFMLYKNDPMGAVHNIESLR

[2] = target: ΔNmBcs1 (Mus musculus, UniProt Q9CZP5); assay: X-ray crystal structure, […] Å; settings: 2 mM AMP-PNP, 20 mM MgCl2, pH 7.5; nucleotide-binding site

Question: Which results are given for `Nc1ncnc2c1ncn2[C@@H]1O[C@H](COP(=O)(O)OP(=O)(O)NP(=O)(O)O)[C@@H](O)[C@H]1O` [AMP-PNP]?
Answer: blue-native PAGE band shift [1]: incubation of ATPγS or AMP-PNP (nonhydrolyzable ATP) caused a shift in the protein band; X-ray crystal structure, 2.2 Å [2]: yielding a heptameric structure with clearly visible bound AMP-PNP
